Laboratory results taken from US10597362B2, “3-aminoalkylated indole derivative, method for the preparation thereof, and pharmaceutical composition comprising the same” (Seoul National University Hospital, priority 2016, dated 2020).

test system: hResistin; assay: Ability to inhibit TNF-α secretion by hResistin (THP-1, ELISA); assay type: cell-based; conditions: THP-1 human monocyte cell line; TNF-α secretion by hResistin; concentration 5 uM
Method: Using THP-1 (human monocyte) cell line and ELISA system, the abilities to inhibit TNF-α secretion by hResistin (IC50) were evaluated for the compounds prepared in the above examples. The compounds target hResistin, and the abilities of the compounds to inhibit TNF-α secretion by human recombinant Resistin in human monocyte (THP-1) were evaluated. The abilities to inhibit TNF-α secretion were assessed by ELISA quantifying the amount of antibody with the enzyme as a marker using an antigen-antibody reaction.
Specifically, the cultured cells were spun down at 1,500 rpm for 2 minutes, the supernatant was removed and then the cells were re-suspended in 10 mL of complete RPMI-1640 medium. After counting the number of cells using Luna™ Automated Cell Counter, cells were plated into 96-well assay plates at 50 μL per well. The cells cultured for 24 hours were treated with the test substances in accordance with the concentration for 1 hour, and then the supernatant was collected and subjected to ELISA assay. In the ELISA assay, the absorbance at 450 nm (OD450 nm) was measured using Flexstation 3. The ability of each test substance to inhibit TNF-α secretion (IC50) and its inhibition at a concentration of 5 uM are shown in Table 1 below.

For CN1CCN(C(c2ccc(Cl)cc2)c2c(-c3ccccc3)[nH]c3ccccc23)CC1 (stereo not drawn) [Example 2, 3-((4-chlorophenyl)(4-methylpiperazin-1-yl)methyl)-2-phenyl-1H-indole], the inhibition at 5 µM was 70.3%.

same assay, conditions: THP-1 human monocyte cell line; human recombinant Resistin; ELISA OD450 nm; 1 hour treatment

First: CN1CCN(C(c2ccc(Cl)cc2)c2c(-c3ccccc3)[nH]c3ccccc23)CC1 (stereo not drawn) [Example 2, 3-((4-chlorophenyl)(4-methylpiperazin-1-yl)methyl)-2-phenyl-1H-indole]
Second: CN1CCN(C(c2ccc(F)cc2)c2c(-c3ccccc3)[nH]c3ccccc23)CC1 (stereo not drawn) [Example 10, 3-((4-fluorophenyl)(4-methylpiperazin-1-yl)methyl)-2-phenyl-1H-indole]
The IC50 of the first is 2.6-fold higher: 4400 nM for the first, 1700 nM for the second. The second is the more potent here.

CN1CCN(C(c2ccccc2)c2c(-c3ccccc3)[nH]c3ccccc23)CC1 (stereo not drawn) [Example 6, 3-((4-methylpiperazin-1-yl)(phenyl)methyl)-2-phenyl-1H-indole] and CN1CCN(C(c2cccc(F)c2)c2c(-c3ccccc3)[nH]c3ccccc23)CC1 (stereo not drawn) [Example 7, 3-((3-fluorophenyl)(4-methylpiperazin-1-yl)methyl)-2-phenyl-1H-indole] are within 1.5-fold of each other in IC50: 2800 nM for the first, 2000 nM for the second.

Compared with CN1CCN(C(c2ccc(C(F)(F)F)cc2)c2c(-c3ccccc3)[nH]c3ccccc23)CC1 (stereo not drawn) [Example 8, 3-((4-methylpiperazin-1-yl)(4-(trifluoromethyl)phenyl)methyl)-2-phenyl-1H-indole], CCN1CCN(C(c2ccc(C(F)(F)F)cc2)c2c(-c3ccccc3)[nH]c3ccccc23)CC1 (stereo not drawn) [Example 19, 3-((4-ethylpiperazin-1-yl)(4-(trifluoromethyl)phenyl)methyl)-2-phenyl-1H-indole] is 1.7-fold higher in IC50: 1000 nM for the first, 1700 nM for the second.

First: Fc1ccc(C(c2c(-c3ccccc3)[nH]c3ccccc23)N2CCOCC2)cc1 (stereo not drawn) [Example 9, 4-((4-fluorophenyl)(2-phenyl-1H-indol-3-yl)methyl)morpholine]
Second: CCN1CCN(C(c2ccc(F)cc2)c2c(-c3ccccc3)[nH]c3ccccc23)CC1 (stereo not drawn) [Example 18, 3-((4-ethylpiperazin-1-yl)(4-fluorophenyl)methyl)-2-phenyl-1H-indole]
The IC50 of the first is 2.1-fold higher: 3500 nM for the first, 1700 nM for the second. The second is the more potent here.

First: CN1CCN(C(c2ccc(Cl)cc2)c2c(-c3ccc(Cl)cc3)[nH]c3ccccc23)CC1 (stereo not drawn) [Example 12, 2-(4-chlorophenyl)-3-((4-chlorophenyl)(4-methylpiperazin-1-yl)methyl)-1H-indole]
Second: CN1CCN(C(c2ccc(F)cc2)c2c(-c3ccc(Cl)cc3)[nH]c3ccccc23)CC1 (stereo not drawn) [Example 15, 2-(4-chlorophenyl)-3-((4-fluorophenyl)(4-methylpiperazin-1-yl)methyl)-1H-indole]
The IC50 of the first is 3.8-fold lower: 400 nM for the first, 1500 nM for the second.

In the case of CN1CCN(C(c2cccc(F)c2)c2c(-c3ccc(Cl)cc3)[nH]c3ccccc23)CC1 (stereo not drawn) [Example 14, 2-(4-chlorophenyl)-3-((3-fluorophenyl)(4-methylpiperazin-1-yl)methyl)-1H-indole], the IC50 is reported as 3200 nM.
